Laboratory results published in patent publication US12209102B2, “Heterocyclic compounds and uses thereof” (Kumquat Biosciences Inc., priority 2022, dated 2025).

Columns and labels:
[1] = molecular target: T1, K-Ras WT (Homo sapiens, UniProt P01116); assay: HTRF resonance energy transfer assay, K-Ras WT / SOS1 interaction; format: biochemical; conditions: HTRF assay of Example 5; read-out: IC50 against K-Ras WT
T1 construct: made in house; host or cells: E. coli BL21 (DE3)
How it was run: (§1)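 Buffer about 5 mM HEPES pH 7.4 with ~150 mM NaCl, ~1 mM DTT, 0.05% BSA, 0.0025% (v/v) Igepal. Protein constructs used at molarity matching the IC50 range studied (e.g. ~500 nM). FRET between tagged K-Ras and hSOS1 measured after short incubation.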

[2] = molecular target: T2, K-Ras G12V (Homo sapiens, UniProt P01116, G12V); assay: HTRF resonance energy transfer assay, K-Ras G12V / SOS1 interaction; format: biochemical; conditions: HTRF assay of Example 5; read-out: IC50 against K-Ras G12V
T2 construct: made in house; host or cells: E. coli BL21 (DE3)
T2 sequence (P01116 1-188 isoform P01116-2 G12V): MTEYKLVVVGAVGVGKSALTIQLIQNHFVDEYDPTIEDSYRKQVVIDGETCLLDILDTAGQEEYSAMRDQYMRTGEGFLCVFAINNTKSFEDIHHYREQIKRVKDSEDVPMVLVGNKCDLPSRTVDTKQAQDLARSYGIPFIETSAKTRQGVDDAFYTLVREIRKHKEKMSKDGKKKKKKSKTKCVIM
How it was run: as §1

[3] = tested on: A549 cells; assay: Ras cellular assay, growth of cells with K-Ras G12S mutation (CellTiter-Glo); format: cell-based; conditions: Homo sapiens, cell growth, Example 9, G12S mutation, read-out: IC50 against A549 cells
How it was run: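 Growth inhibition IC50 values come from four-parameter fits of CellTiter-Glo luminescence, read about 6 days after compound addition. G12S-mutant A549 cells (e.g. 800/well, RPMI-1640 + 10% heat-inactivated FBS) were plated in tissue-culture-treated or ultra-low-attachment 384-well format. Dosing began the following day with serial dilutions, e.g. 10 points, 3-fold.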

[4] = tested on: SW620 cells; assay: Ras cellular assay, growth of cells with K-Ras G12V mutation (CellTiter-Glo); format: cell-based; conditions: Homo sapiens, SW-620; cell growth, Example 9, G12V mutation; read-out: IC50 against SW620 cells
How it was run: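 IC50 values came from a four-parameter fit of CellTiter-Glo viability, read roughly 6 days after dosing with e.g. a 10-point threefold dilution series. G12V-mutant SW620 cells (e.g. 800 per well) had been plated the previous day in RPMI-1640/10% heat-inactivated FBS, on tissue culture-treated or ultra-low attachment plates.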

[5] = molecular target: T3, K-Ras G12S (Homo sapiens, UniProt P01116, G12S); assay: HTRF resonance energy transfer assay, K-Ras G12S / SOS1 interaction; format: biochemical; conditions: HTRF assay of Example 5; read-out: IC50 against K-Ras G12S
T3 construct: made in house; host or cells: E. coli BL21 (DE3)
T3 sequence (P01116 1-188 isoform P01116-2 G12S): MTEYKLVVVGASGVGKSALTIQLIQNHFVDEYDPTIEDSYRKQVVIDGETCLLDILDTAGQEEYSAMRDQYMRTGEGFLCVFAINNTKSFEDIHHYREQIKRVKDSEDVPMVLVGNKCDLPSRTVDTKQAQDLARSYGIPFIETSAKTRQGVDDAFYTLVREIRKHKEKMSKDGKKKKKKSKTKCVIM
How it was run: as §1

[6] = molecular target: T4, K-Ras G12D (Homo sapiens, UniProt P01116, G12D); assay: HTRF resonance energy transfer assay, K-Ras G12D / SOS1 interaction; format: biochemical; conditions: HTRF assay of Example 5; read-out: IC50 against K-Ras G12D
T4 construct: made in house; host or cells: E. coli BL21 (DE3)
T4 sequence (P01116 1-188 isoform P01116-2 G12D): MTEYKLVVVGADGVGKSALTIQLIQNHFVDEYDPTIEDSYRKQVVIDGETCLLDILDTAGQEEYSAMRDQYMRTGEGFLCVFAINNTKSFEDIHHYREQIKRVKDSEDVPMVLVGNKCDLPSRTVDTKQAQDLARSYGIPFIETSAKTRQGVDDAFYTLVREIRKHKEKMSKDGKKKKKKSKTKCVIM
How it was run: as §1

T1 sequence (P01116 1-188 isoform P01116-2): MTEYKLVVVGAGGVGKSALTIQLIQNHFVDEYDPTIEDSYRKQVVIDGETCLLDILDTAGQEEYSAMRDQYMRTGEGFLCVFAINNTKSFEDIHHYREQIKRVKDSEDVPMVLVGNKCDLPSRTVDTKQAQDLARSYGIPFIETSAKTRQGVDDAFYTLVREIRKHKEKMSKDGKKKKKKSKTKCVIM

Row | SMILES | IC50 [1] | IC50 [2] | IC50 [3] | IC50 [4] | IC50 [5] | IC50 [6]
1 | N#Cc1c(N)sc2c(F)ccc(-c3c(Cl)c4c5c(nc(OC[C@@]67CCCN6C[C@H](F)C7)nc5c3F)N(C3CC5CCC3N5)CCO4)c12 (stereo partly drawn) [Compound 733, 4-(4-(7-azabicyclo[2.2.1]heptan-2-yl)-8-chloro-10-fluoro-2-(((2R,7aS)-2-fluorotetrahydro-1H-pyrrolizin-7a(5H)-yl)methoxy)-5,6-dihydro-4H-[1,4]oxazepino[5,6,7-de]quinazolin-9-yl)-2-amino-7-fluorobenzo[b]thiophene-3-carbonitrile] | < 100 nM | < 100 nM | < 5000 nM | < 5000 nM | < 100 nM | < 100 nM
2 | N#Cc1c(N)sc2c(F)ccc(-c3c(Cl)c4c5c(nc(OC[C@@]67CCCN6C[C@H](F)C7)nc5c3F)N(C3CCC5(C3)CN(C(=O)C3CC3(F)F)C5)CCO4)c12 (stereo partly drawn) [Compound 746, 2-amino-4-(8-chloro-4-(2-(2,2-difluorocyclopropane-1-carbonyl)-2-azaspiro[3.4]octan-6-yl)-10-fluoro-2-(((2R,7aS)-2-fluorotetrahydro-1H-pyrrolizin-7a(5H)-yl)methoxy)-5,6-dihydro-4H-[1,4]oxazepino[5,6,7-de]quinazolin-9-yl)-7-fluorobenzo[b]thiophene-3-carbonitrile] | < 100 nM | < 100 nM | < 5000 nM | < 5000 nM | < 100 nM | < 100 nM
3 | N#Cc1c(N)sc2c(F)ccc(-c3c(Cl)c4c5c(nc(OC[C@@]67CCCN6C[C@H](F)C7)nc5c3F)N(C3CC(NC(=O)[C@@H]5N[C@H]5C5CC5)C3)CCO4)c12 (stereo partly drawn) [Compound 1082, (2R,3S)-N-(3-(9-(2-amino-3-cyano-7-fluorobenzo[b]thiophen-4-yl)-8-chloro-10-fluoro-2-(((2R,7aS)-2-fluorotetrahydro-1H-pyrrolizin-7a(5H)-yl)methoxy)-5,6-dihydro-4H-[1,4]oxazepino[5,6,7-de]quinazolin-4-yl)cyclobutyl)-3-cyclopropylaziridine-2-carboxamide] | < 100 nM | < 100 nM | < 5000 nM | < 5000 nM | < 100 nM | < 100 nM

Continued, values first:

Row | IC50 [1] | IC50 [2] | IC50 [3] | IC50 [4] | IC50 [5] | IC50 [6] | SMILES
4 | < 100 nM | < 100 nM | < 5000 nM | < 5000 nM | < 100 nM | < 100 nM | N#Cc1c(N)sc2c(F)ccc(-c3c(Cl)c4c5c(nc(OC[C@@]67CCCN6C[C@H](F)C7)nc5c3F)N(C3CCCCC3)CCO4)c12 [Compound 1116, 2-amino-4-(8-chloro-4-cyclohexyl-10-fluoro-2-(((2R,7aS)-2-fluorotetrahydro-1H-pyrrolizin-7a(5H)-yl)methoxy)-5,6-dihydro-4H-[1,4]oxazepino[5,6,7-de]quinazolin-9-yl)-7-fluorobenzo[b]thiophene-3-carbonitrile]
5 | < 100 nM | < 100 nM | < 5000 nM | < 5000 nM | < 100 nM | < 100 nM | N#CCCCN1CCOc2c(Cl)c(-c3ccc(F)c4sc(N)c(C#N)c34)c(F)c3nc(OC[C@@]45CCCN4C[C@H](F)C5)nc1c23 [Compound 837, 2-amino-4-(8-chloro-4-(3-cyanopropyl)-10-fluoro-2-(((2R,7aS)-2-fluorotetrahydro-1H-pyrrolizin-7a(5H)-yl)methoxy)-5,6-dihydro-4H-[1,4]oxazepino[5,6,7-de]quinazolin-9-yl)-7-fluorobenzo[b]thiophene-3-carbonitrile]
6 | < 100 nM | < 100 nM | < 5000 nM | < 5000 nM | < 100 nM | < 100 nM | N#Cc1c(N)sc2c(F)ccc(-c3c(Cl)c4c5c(nc(OC[C@@]67CCCN6C[C@H](F)C7)nc5c3F)N(C3CCN(S(=O)(=O)C5CC5)C3)CCO4)c12 (stereo partly drawn) [Compound 922, 2-amino-4-(8-chloro-4-(1-(cyclopropylsulfonyl)pyrrolidin-3-yl)-10-fluoro-2-(((2R,7aS)-2—fluorotetrahydro-1H-pyrrolizin-7a(5H)-yl)methoxy)-5,6-dihydro-4H-[1,4]oxazepino[5,6,7-de]quinazolin-9-yl)-7-fluorobenzo[b]thiophene-3-carbonitrile]
